Assay results published in patent publication US20050112251A1, “Preservation of liquids” (priority 2002, published 2005).
Values belong to the molecule of their own block, whether it stands above or below them.

Key:
[1] = system: Zygosaccharomyces bailii CBS 1097; experiment: Time to spoilage of inoculated apple juice (visible growth, turbidity); format: cell-based; details: room temperature
Procedure: (§1) All experiments were done with pure apple juice. The chosen concentrations of natamycin were sub-optimal (=below MIC).
(§2) All experiments were executed in duplo. • a. The effect of natamycin against the spore forming yeast Zygosaccharomyces bailii CBS 1097 was examined. Apple juice was inoculated with 10^4 Colony Forming Units (CFU)/ml of apple juice. Natamycin was added at a concentration of 1 ppm. • b. The effect of natamycin was tested against Penicillium italicum ATCC 36041. A spore suspension was prepared using well-known methods. The freshly prepared spore suspension was added to apple juice to a final concentration of 104 spores/ml of apple juice. Natamycin was added at a concentration of 5 ppm.
(§3) The samples were incubated at room temperature until fungal growth was visually observed (turbidity of the juice).
(§4) The pulsed electric fields treatments were applied according to well-known procedures for PEF-treatments of liquids. The apple juice to be treated was pumped through the PEF-treatment chamber with a flow rate of 60 litres per hour. The treatment temperature also called juice temperature before the PEF-treatment chamber was 17° C. The value of the electric field strength and the pulse length kept constant were 35 kV/cm and 2-μs, respectively. Three samples points were validated by variation of the pulse frequency, from 8.6 Hz (treatment A) to 5.7 Hz (treatment B) and 2.9 Hz (treatment C). With the above-mentioned parameters, the apple juice received 12, 8 or 4 pulses; those correspond to an energy density of 71, 37 and 12.5 J/ml of juice, respectively.
The chosen inoculation levels, natamycin concentrations and PEF treatments were as described in the examples 2 and 3.
(§5) All samples were incubated at room temperature until fungal growth was visually observed (turbidity of the juice).
Zygosaccharomyces bailii was inoculated in apple juice as described in example 2. Sorbate was added at a concentration of 800 ppm.
The PEF-treatment was used as described in the example 3. […] (treatment B).
The samples were incubated at room temperature.

[2] = Stability of antifungal agent in apple juice during PEF treatment (HPLC); format: physicochemical; details: for inactivation of the antifungal agent by the PEF treatment: general statement in the description
Procedure: as §4
This example illustrates the resistance of natamycin to PEF treatments. Natamycin was added to apple juice at a concentration of 5 ppm and submitted to pulsed electric field treatments as described in example 3. The natamycin content after the PEF-treatments was determined by HPLC.

[3] = cited from earlier work
[4] = system: Peacilomyces variotii 10274; experiment: Natamycin MIC, agar diffusion method; format: cell-based
Procedure: (§6) The minimal inhibition concentration (MIC) of these fungi or the minimal effective amount of the antifungal compound was determined using the agar diffusion method, which is well known in the art. Fungus spores were grown on agar plates containing different concentrations of natamycin. The concentration of natamycin on which no visible growth could be observed was considered as the minimal inhibition concentration for that particular fungus strain.

[5] = system: Talaromyces macrosporus 130.89; experiment: Natamycin MIC, agar diffusion method; format: cell-based; details: isolated from pineapple juice
Procedure: as §6

[6] = system: Cladosporium tenuissimum 117.79; experiment: Natamycin MIC, agar diffusion method; format: cell-based; details: isolated from fruit
Procedure: as §6

[7] = system: Stemphiliomma valparadisiacum 510.83; experiment: Natamycin MIC, agar diffusion method; format: cell-based; details: isolated from apple juice
Procedure: as §6

[8] = system: Aspergillus versicolor 245.62; experiment: Natamycin MIC, agar diffusion method; format: cell-based
Procedure: as §6

[9] = system: Byssochlamys nivea 424.300; experiment: Natamycin MIC, agar diffusion method; format: cell-based; details: Paecilomyces niveus, agar plates, no visible growth
Procedure: as §6

[10] = system: Zygosporium mycophilum 396.49; experiment: Natamycin MIC, agar diffusion method; format: cell-based; details: isolated from apple pulp
Procedure: as §6

[11] = system: Mucor circinelloides 366.70; experiment: Natamycin MIC, agar diffusion method; format: cell-based; details: isolated from strawberries
Procedure: as §6

[12] = system: Talaromyces macrosporus CBS 130.89 spores; experiment: Time to visible growth of heat-resistant fungus spores in apple juice; format: cell-based; details: 104 spores/ml apple juice, incubation 25° C.
Procedure: This example describes the activity of natamycin against spores of a heat resistant fungal species, which is well known for causing spoilage problems in food industry. All experiments were executed on Talaromyces macrosporus CBS 130.89 spores suspended in pure apple juice. The chosen concentration of natamycin was sub-optimal. […] All experiment were executed in duplo.
Apple juice was inoculated with 104 spores/ml of apple juice. Natamycin was added at a concentration of 2.5 ppm. The spores suspended in the apple juice were submitted to a heat treatment at 80° C. for 5 minutes in order to stimulate their germination.
The samples were incubated at room temperature until fungal growth was visually observed (turbidity of the juice). Growth was observed after 4 days of incubation at 25° C.
This example describes the effect of a Pulsed Electric Field treatment against heat-resistant spores of Talaromyces macrosporus CBS 130.89. The pulsed electric fields treatments were applied as describe in the example 3. One sample point was validated for a frequency of 8.6 Hz (treatment A).
The chosen inoculation levels, natamycin concentrations and PEF treatments were as described in the examples 8 and 9. The natamycin can be added before or after the PEF treatment.
All samples were incubated at room temperature until fungal growth was visually observed (turbidity of the juice). […]

[13] = system: most food born fungi; details: cited from earlier work
[14] = system: fungal spores which survived the PEF treatment; experiment: Inhibition of outgrowth of fungal spores, summary of agar diffusion MIC; format: cell-based; details: summary of Table 1
Procedure: as §6

[15] = system: Penicillium italicum ATCC 36041; experiment: Time to spoilage of inoculated apple juice (visible growth, turbidity); format: cell-based; details: room temperature
Procedure: as §1, §2, §3, §4
The chosen inoculation levels, natamycin concentrations and PEF treatments were as described in the examples 2 and 3. The natamycin can be added before or after the PEF treatment.
as §5

[16] = natamycin 5 ppm + PEF-treatment C (2.9 Hz, 12.5 J/ml)

SMILES: CC=CC=CC(=O)O [sorbate]
- Time without observed fungal growth ([1]; sorbate 800 ppm + PEF-treatment B): at least 30 days
- Time until fungal growth visually observed ([1]; sorbate 800 ppm alone): 6 days
- inactivation of the antifungal agent by the PEF treatment [2]: not inactivated

- MIC [4]: < 2.5 µg/mL
- MIC [5]: < 2.5 µg/mL
- MIC [6]: < 2.5 µg/mL
- MIC [7]: < 5 µg/mL
- MIC [8]: < 2.5 µg/mL
- MIC [9]: < 2.5 µg/mL
- MIC [10]: < 2.5 µg/mL
- MIC [11]: < 2.5 µg/mL
- inactivation of the antifungal agent by the PEF treatment [2]: not inactivated
SMILES: C[C@@H]1C/C=C/C=C/C=C/C=C/[C@H](O[C@@H]2O[C@H](C)[C@@H](O)[C@H](N)[C@@H]2O)C[C@@H]2O[C@](O)(C[C@@H](O)C[C@H]3O[C@@H]3/C=C/C(=O)O1)C[C@H](O)[C@H]2C(=O)O [natamycin]
- solubility in water [3]: 30 to 50 ppm
- Time to spoilage, natamycin added before PEF-treatment ([1]; natamycin 1 ppm + PEF-treatment A (8.6 Hz, 71 J/ml)): >30 days
- Time to spoilage, natamycin added after PEF-treatment ([1]; natamycin 1 ppm + PEF-treatment B (5.7 Hz, 37 J/ml)): >30 days
- Time to spoilage ([1]; natamycin 1.0 ppm alone, 10^4 CFU/ml): 2 days
- natamycin content after the PEF-treatments (HPLC) ([2]; 5 ppm in apple juice, PEF treatments as in example 3): None of the analyzed samples showed a decrease
- Time until growth observed ([12]; natamycin 2.5 ppm + PEF-treatment A): 9 days
- Time until growth observed ([12]; natamycin 2.5 ppm alone, heat activation 80° C. 5 minutes): 4 days
- MIC (Minimal Inhibition Concentration) [13]: less than 10 ppm
- concentration that inhibits the outgrowth of fungal spores [14]: < 5 ppm
- Time to spoilage, natamycin added after PEF-treatment [15, 16]: >30 days
- Time to spoilage, natamycin added before PEF-treatment [15, 16]: >30 days
- Time to spoilage ([15]; natamycin 5.0 ppm alone, 104 spores/ml): 4 days
